Measurements taken from ChEMBL document CHEMBL1130719, “Synthesis of 6(alpha, beta)-aminocholestanols as ergosterol biosynthesis inhibitors” (Bioorg Med Chem Lett, 1998).

Assays:
Type in all cases: functional, organism-based
Saccharomyces cerevisiae [1] = experiment: Compound was tested for growth inhibition against Saccharomyces cerevisiae (ATCC 28383); Inactive over 250 uM
Candida albicans [2] = experiment: Compound was tested for growth inhibition against Candida albicans (CIP 1180.79); Inactive over 250 uM
Saccharomyces cerevisiae [3] = experiment: Compound was tested for growth inhibition against Saccharomyces cerevisiae (ATCC 28383); Slow development (>80-<100 uM)
Candida albicans [4] = experiment: Compound was tested for growth inhibition against Candida albicans (CIP 1180.79); Slow development (>80-<100 uM)
Saccharomyces cerevisiae [5] = experiment: Compound was tested for growth inhibition against Saccharomyces cerevisiae (ATCC 28383)
Candida albicans [6] = experiment: Compound was tested for growth inhibition against Candida albicans (CIP 1180.79)

SMILES | IC50 (Saccharomyces cerevisiae [1]) | IC50 (Candida albicans [2]) | IC50 (Saccharomyces cerevisiae [3]) [µM] | IC50 (Candida albicans [4]) [µM] | IC50 (Saccharomyces cerevisiae [5]) [µM] | IC50 (Candida albicans [6]) [µM]
CC(C)CCC[C@@H](C)C1CC[C@H]2[C@@H]3C[C@H]([N+](=O)[O-])[C@H]4C[C@@H](O)CC[C@]4(C)[C@H]3CC[C@]12C (some centres not stated) | Not Active | Not Active |  |  |  | 
CC(=O)N[C@@H]1C[C@@H]2[C@H](CC[C@]3(C)C([C@H](C)CCCC(C)C)CC[C@@H]23)[C@@]2(C)CC[C@H](O)C[C@H]12 (some centres not stated) |  |  | > 80 | > 80 |  | 
CC(C)CCC[C@@H](C)C1CC[C@H]2[C@@H]3C[C@@H]([N+](=O)[O-])[C@H]4C[C@@H](O)CC[C@]4(C)[C@H]3CC[C@]12C (some centres not stated) | Not Active | Not Active |  |  |  | 
CC(=O)N[C@H]1C[C@@H]2[C@H](CC[C@]3(C)C([C@H](C)CCCC(C)C)CC[C@@H]23)[C@@]2(C)CC[C@H](O)C[C@H]12 (some centres not stated) |  |  | > 80 | > 80 |  | 
CC(C)CCC[C@@H](C)C1CC[C@H]2[C@@H]3C[C@H](N)[C@H]4C[C@@H](O)CC[C@]4(C)[C@H]3CC[C@]12C (some centres not stated) |  |  |  |  | < 15 | < 31
CC(C)CCC[C@@H](C)C1CC[C@H]2[C@@H]3C[C@@H](N)C4C[C@@H](O)CC[C@]4(C)[C@H]3CC[C@]12C (some centres not stated) |  |  |  |  | < 15 | < 7
